Entries after “also recorded” stand apart in the source; their conditions may differ.
Assays:
[1] = system: PI(4)P and PI(4,5)P2 pools in Huh7.5 cells; test: Immunofluorescence of intracellular PI-4 and PIP2 pools in Huh7.5 cells; type: cell-based
Description: To further confirm its mechanism of action the effect of (1) on PI-4 levels was determined in cells using immunofluorescence to monitor the intracellular localized pools of PI-4. The effect of (1) on intracellular pools of PIP2 was tested, which were predicted to be similarly sensitive to inhibition using (1). […] Uninfected Huh7.5 cells or HCV-infected Huh7.5 cells were used.

PI3K p110g = molecular target: T1, PI3K p110g (Homo sapiens, UniProt P48736); test: PI3K p110g kinase assay; type: biochemical
T1 construct: purchased Millipore
Description: (§1) In the assays described here, p110α-p85 complex and p110γ were acquired from Millipore. Assays were performed with Lα-phosphatidylinositol (Avanti) as described in Knight et al. Nat Protoc. 2007; 2 (10):2459-66. Inhibitor series were prepared 10% DMSO as 5× stocks for the assay. Assays of HsVps34 were performed as described in Knight et al, except that the final assay buffer composition used was changed to 20 mM HEPES 7.5, 100 mM NaCl, 3 mM MgCl, 1 mg/mL PI and 44 nM hvps34 was used in the assay. […] COS-7 cells were cultured in 10 cm dishes and transfected at 70% confluence with 10 μg of plasmid DNA (HA-tagged bovine PI4KIIIβ, HA-tagged human PI4KIIIα) using Lipofectamine 2000 and 5 ml Opti-MEM following the manufacturer's instructions. After 5 hours the transfection medium was replaced with 10 ml complete DMEM. 36 hrs post transfection, cells were washed once with 5 ml PBS (pH 7.4) and lysed in 1 ml of lysis buffer (1) on ice. Lysates were collected by scraping and after 15 min they were centrifuged at 13,000 rpm for 10 min. To the lysates was added 200 μl of protein G Sepharose 4 fast flow beads that were prewashed with PBS and lysis buffer and 2 μg of anti-HA antibody. The tubes were then incubated overnight at 4 degrees C. in a tube rotator. The Sepharose beads in the lysate were washed twice with 150 mM NaCl in RIPA buffer, twice with RIPA buffer and once with kinase buffer (50 mM Tris/HCl, pH 7.5, 20 mM MgCl2, 1 mM EGTA, 1 mM PtdIns, 0.4% Triton X-100, 0.5 mg/mL BSA) and finally the beads were resuspended in 200 μL kinase buffer. Kinase reactions were run in a mixture of 45 μL of PI buffer (1 mM PI in kinase buffer), 10 μL of immunoprecipitated beads, 2 µL of inhibitors (dissolved and diluted in DMSO) or DMSO and 5 μL of [γ-^32P]-ATP (1 mM and 2 μCi/tube). The immunoprecipitates in PI buffer were pre-incubated with the drugs for 20 min prior the initiation of kinase reaction by adding ATP and the reactions were carried out for 30 min in 15 ml polypropolyne tubes. Reactions were terminated by addition of 3 ml of CHCl3:CH3OH:HCl (200:100:0.75) followed by 0.6 ml of 0.6N HCl to induce phase separation. The mixtures were vortexed, centrifuged at 2000 rpm for 2 min and the upper phase was discarded. To the lower phase was added 1.5 ml of CHCl3:CH3OH:0.6N HCl (3:48:47) and the mixture vortexed and centrifuged at 2000 rpm for 2 min. The lower phase was then transferred to counting vials and evaporated. Samples were counted in a scintillation beta counter after adding 5 ml of Instafluor (Perkin-Elmer).
(§2) PI-kinase assay: Compounds are tested in C.1.1. PI kinase assays as described by Shokat et al., “A membrane capture assay for lipid kinase activity.” Nat. Protoc. 2007; 2(10):2459-66.

PI3KC2B = PI3KC2B (Homo sapiens, UniProt O00750); test: PI3KC2B kinase assay; type: biochemical
Description: as §2

HCV genotype 2a = test: microbe, parasite or virus in culture; type: cell-based; details: Hepatitis C virus, Huh7.5, read-out: HCV2a EC50
HRV = test: Rhinovirus antiviral assay; type: cell-based; details: Human rhinovirus sp.
PI4KIIIB = molecular target: T2, PI4KIIIB (Bos taurus, UniProt O02810); test: PI4KIIIB kinase assay; type: biochemical, bovine
T2 construct: made in house; host or cells: COS-7 cells, transient transfection, anti-HA immunoprecipitate on protein G Sepharose beads
Description: as §1, with “2007; 2 (10):2459-66.” left out, “for” for “for the assay. Assays of HsVps34 were performed as described in Knight et al, except that the final assay buffer composition used was changed to 20 mM HEPES 7.5, 100 mM NaCl, 3 mM MgCl, 1 mg/mL PI and 44 nM hvps34 was used in”, “Lysates were collected by scraping and after 15 min they were centrifuged at 13,000 rpm for 10 min.” left out, “The Sepharose beads in the lysate were washed twice with 150 mM NaCl in RIPA buffer, twice with RIPA buffer and once with kinase buffer (50 mM Tris/HCl, pH 7.5, 20 mM MgCl2, 1 mM EGTA, 1 mM PtdIns, 0.4% Triton X-100, 0.5 mg/mL BSA) and finally the beads were resuspended in 200 μL kinase buffer.” left out
PI-kinase assay: Compounds are tested in C.1.1. PI kinase assays as described by Shokat et al., “A membrane capture assay for lipid kinase activity.” Nat. Protoc.

PI4KIIIA = molecular target: T3, PI4KIIIA (Homo sapiens, UniProt P42356); test: PI4KIIIA kinase assay; type: biochemical
T3 construct: made in house; host or cells: COS-7 cells, transient transfection, anti-HA immunoprecipitate on protein G Sepharose beads
Description: as §1, with “Reactions were terminated by addition of 3 ml of CHCl3:CH3OH:HCl (200:100:0.75) followed by 0.6 ml of 0.6N HCl to induce phase separation. The mixtures were vortexed, centrifuged at 2000 rpm for 2 min and the upper phase was discarded. To the lower phase was added 1.5 ml of CHCl3:CH3OH:0.6N HCl (3:48:47) and the mixture vortexed and centrifuged at 2000 rpm for 2 min. The lower phase was then transferred to counting vials and evaporated.” left out, “(Perkin-Elmer). […]” for “(Perkin-Elmer).”

PI3K p110a = molecular target: T4, PI3K p110a (Homo sapiens, UniProt P42336); test: PI3K p110a kinase assay; type: biochemical
T4 construct: purchased Millipore
Description: In the assays described here, p110α-p85 complex and p110γ were acquired from Millipore. Assays were performed with Lα-phosphatidylinositol (Avanti) as described in Knight et al. Nat Protoc. […] Inhibitor series were prepared 10% DMSO as 5× stocks for the assay. […] COS-7 cells were cultured in 10 cm dishes and transfected at 70% confluence with 10 μg of plasmid DNA (HA-tagged bovine PI4KIIIβ, HA-tagged human PI4KIIIα) using Lipofectamine 2000 and 5 ml Opti-MEM following the manufacturer's instructions. After 5 hours the transfection medium was replaced with 10 ml complete DMEM. 36 hrs post transfection, cells were washed once with 5 ml PBS (pH 7.4) and lysed in 1 ml of lysis buffer (1) on ice. […] To the lysates was added 200 μl of protein G Sepharose 4 fast flow beads that were prewashed with PBS and lysis buffer and 2 μg of anti-HA antibody. The tubes were then incubated overnight at 4 degrees C. in a tube rotator. […] Kinase reactions were run in a mixture of 45 μL of PI buffer (1 mM PI in kinase buffer), 10 μL of immunoprecipitated beads, 2 µL of inhibitors (dissolved and diluted in DMSO) or DMSO and 5 μL of [γ-^32P]-ATP (1 mM and 2 μCi/tube). […] Samples were counted in a scintillation beta counter after adding 5 ml of Instafluor (Perkin-Elmer). […]

[2] = immunofluorescence, 250 nM, 500 nM or 1 uM, uninfected or HCV-infected Huh7.5 cells

PI3KC2B, sequence (O00750 whole entry): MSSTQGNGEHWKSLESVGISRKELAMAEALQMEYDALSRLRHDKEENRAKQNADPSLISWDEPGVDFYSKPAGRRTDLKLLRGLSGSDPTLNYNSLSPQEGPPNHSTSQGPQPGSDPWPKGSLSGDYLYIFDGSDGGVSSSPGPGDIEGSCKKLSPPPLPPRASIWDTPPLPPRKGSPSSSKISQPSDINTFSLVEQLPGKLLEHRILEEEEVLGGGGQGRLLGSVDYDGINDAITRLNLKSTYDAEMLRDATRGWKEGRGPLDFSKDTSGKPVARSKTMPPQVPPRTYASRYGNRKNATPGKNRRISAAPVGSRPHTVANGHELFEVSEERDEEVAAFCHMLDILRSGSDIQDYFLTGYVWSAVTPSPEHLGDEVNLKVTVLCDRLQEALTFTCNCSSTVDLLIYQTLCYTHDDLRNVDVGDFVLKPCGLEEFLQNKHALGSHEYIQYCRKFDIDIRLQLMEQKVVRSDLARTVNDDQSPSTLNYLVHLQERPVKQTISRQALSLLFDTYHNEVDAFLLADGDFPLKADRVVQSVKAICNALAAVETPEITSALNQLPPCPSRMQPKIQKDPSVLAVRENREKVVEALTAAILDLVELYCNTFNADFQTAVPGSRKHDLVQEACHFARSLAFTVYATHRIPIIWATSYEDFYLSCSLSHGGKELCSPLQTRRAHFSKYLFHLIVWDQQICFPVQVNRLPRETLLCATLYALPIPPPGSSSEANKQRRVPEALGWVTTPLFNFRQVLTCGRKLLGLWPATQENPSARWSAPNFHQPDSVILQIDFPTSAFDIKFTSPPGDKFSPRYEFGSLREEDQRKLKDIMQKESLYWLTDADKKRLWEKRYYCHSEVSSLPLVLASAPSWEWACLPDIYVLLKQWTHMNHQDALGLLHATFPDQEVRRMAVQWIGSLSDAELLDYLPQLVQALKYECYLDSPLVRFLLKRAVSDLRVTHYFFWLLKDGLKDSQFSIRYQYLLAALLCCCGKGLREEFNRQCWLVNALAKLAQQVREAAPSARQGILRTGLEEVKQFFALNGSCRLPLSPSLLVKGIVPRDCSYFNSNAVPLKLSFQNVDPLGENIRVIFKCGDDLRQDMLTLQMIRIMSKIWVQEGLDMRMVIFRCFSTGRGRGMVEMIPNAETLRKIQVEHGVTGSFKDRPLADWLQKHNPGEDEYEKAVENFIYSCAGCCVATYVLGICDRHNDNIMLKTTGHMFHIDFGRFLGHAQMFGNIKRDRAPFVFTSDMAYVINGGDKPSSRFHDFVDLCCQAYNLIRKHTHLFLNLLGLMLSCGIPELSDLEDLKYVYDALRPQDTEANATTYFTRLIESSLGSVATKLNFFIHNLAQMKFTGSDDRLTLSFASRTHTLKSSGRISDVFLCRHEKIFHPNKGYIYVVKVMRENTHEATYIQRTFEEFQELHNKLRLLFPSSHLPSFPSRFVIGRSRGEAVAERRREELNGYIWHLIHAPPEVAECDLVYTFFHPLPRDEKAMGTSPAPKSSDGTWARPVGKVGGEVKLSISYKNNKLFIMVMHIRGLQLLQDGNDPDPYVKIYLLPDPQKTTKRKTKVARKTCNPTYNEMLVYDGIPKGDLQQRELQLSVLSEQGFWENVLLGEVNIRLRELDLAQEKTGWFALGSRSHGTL
T1 sequence (P48736 whole entry): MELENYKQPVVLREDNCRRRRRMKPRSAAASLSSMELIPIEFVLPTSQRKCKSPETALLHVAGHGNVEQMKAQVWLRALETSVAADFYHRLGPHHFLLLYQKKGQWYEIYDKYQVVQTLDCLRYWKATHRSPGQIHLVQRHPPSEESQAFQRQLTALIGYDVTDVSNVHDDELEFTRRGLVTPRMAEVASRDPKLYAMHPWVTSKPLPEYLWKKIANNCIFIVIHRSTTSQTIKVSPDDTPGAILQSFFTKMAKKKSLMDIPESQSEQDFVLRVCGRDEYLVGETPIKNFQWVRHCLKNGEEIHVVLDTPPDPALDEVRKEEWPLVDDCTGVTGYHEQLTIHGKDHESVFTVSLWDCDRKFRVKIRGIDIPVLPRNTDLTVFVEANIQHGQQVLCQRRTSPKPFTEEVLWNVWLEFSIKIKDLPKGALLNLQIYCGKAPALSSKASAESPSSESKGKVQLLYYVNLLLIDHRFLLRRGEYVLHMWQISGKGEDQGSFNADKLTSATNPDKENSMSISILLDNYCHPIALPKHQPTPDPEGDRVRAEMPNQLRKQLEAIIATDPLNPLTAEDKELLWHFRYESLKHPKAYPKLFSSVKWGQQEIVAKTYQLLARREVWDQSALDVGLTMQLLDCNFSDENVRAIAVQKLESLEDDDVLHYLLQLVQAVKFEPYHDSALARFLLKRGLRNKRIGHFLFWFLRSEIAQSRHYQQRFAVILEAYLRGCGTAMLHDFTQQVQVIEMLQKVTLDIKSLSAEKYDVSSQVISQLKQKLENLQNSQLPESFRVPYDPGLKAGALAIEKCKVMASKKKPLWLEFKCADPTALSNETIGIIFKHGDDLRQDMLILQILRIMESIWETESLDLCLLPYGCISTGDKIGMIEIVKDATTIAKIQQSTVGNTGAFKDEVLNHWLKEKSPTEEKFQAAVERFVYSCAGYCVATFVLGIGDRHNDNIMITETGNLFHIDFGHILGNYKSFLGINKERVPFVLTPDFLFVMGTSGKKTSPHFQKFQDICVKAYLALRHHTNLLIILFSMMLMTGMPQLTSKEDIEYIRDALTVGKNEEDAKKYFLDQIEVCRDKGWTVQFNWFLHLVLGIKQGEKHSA
T2 sequence (O02810 whole entry): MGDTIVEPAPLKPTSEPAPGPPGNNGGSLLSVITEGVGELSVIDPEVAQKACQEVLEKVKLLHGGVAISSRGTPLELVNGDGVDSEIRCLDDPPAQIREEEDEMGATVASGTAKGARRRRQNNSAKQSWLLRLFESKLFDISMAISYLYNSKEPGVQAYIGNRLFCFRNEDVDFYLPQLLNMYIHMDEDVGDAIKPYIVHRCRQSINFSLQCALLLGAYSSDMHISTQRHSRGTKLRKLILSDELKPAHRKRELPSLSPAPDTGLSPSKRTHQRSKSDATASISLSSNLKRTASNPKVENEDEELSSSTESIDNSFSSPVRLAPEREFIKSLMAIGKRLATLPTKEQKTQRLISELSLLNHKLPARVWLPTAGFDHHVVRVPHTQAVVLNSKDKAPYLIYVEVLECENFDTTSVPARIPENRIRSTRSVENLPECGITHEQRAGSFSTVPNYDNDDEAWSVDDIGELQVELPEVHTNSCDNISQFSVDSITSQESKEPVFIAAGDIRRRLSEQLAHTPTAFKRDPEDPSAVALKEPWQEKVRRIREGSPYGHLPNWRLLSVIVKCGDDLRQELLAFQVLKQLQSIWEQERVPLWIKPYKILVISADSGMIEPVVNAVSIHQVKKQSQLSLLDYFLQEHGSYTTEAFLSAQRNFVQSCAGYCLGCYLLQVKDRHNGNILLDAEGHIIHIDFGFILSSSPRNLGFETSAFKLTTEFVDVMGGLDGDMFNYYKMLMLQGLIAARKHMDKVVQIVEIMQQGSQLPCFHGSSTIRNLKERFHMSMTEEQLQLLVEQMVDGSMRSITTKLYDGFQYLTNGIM

Row | Structure (SMILES) | IC50 (PI3K p110g) [nM] | IC50 (PI3KC2B) [nM] | EC50 (HCV genotype 2a) [nM] | EC50 (HRV) [nM] | other results
1 | COc1ccc(-c2sc(NC(=O)C3CCCC3)nc2C)cc1S(=O)(=O)Nc1ccc(O)cc1 [Compound 1] | – | – | – | – | Effect on the ER (calnexin co-staining) ([1]; control for non-specific effects): absence of any detectable effects on the ER; Effect on intracellular PI-4 (PI(4)P) levels [1, 2]: dose-dependent decrease; also recorded: decreases; Effect on intracellular PIP2 (PI(4,5)P2) levels [1, 2]: dose-dependent decrease; also recorded: decreases
2 | COc1ccc(-c2sc(NC(=O)CC3CCCC3)nc2C)cc1S(=O)(=O)Nc1ccc(O)cc1 [Compound S-1, 2-cyclopentyl-N-[5-[3-[(4-hydroxyphenyl)sulfamoyl]-4-methoxy-phenyl]-4-methyl-thiazol-2-yl]acetamide] | > 10000 | > 10000 | 1 to 100 | < 1 | –
3 | COc1ccc(-c2sc(NCC3CCCCC3)nc2C)cc1S(=O)(=O)NC1CCCNC1 (centres unmarked) [Compound S-115, 5-[2-(cyclohexylmethylamino)-4-methyl-thiazol-5-yl]-2-methoxy-N-(3-piperidyl)benzenesulfonamide] | – | – | 100 to 1000 | < 1 | IC50 (PI4KIIIB): < 100 nM
4 | COc1ccc(-c2sc(N[C@H](C)C3CCCCC3)nc2C)cc1S(=O)(=O)NC1CCCNC1 (stereo partly drawn) [Compound S-148, 5-[2-[[(1R)-1-cyclohexylethyl]amino]-4-methyl-thiazol-5-yl]-2-methoxy-N-(3-piperidyl)benzenesulfonamide] | > 10000 | – | – | – | IC50 (PI4KIIIA): 100 to 1000 nM; IC50 (PI4KIIIB): < 100 nM; IC50 (PI3K p110a): > 10000 nM
5 | COc1ccc(-c2sc(NC(=O)CCC3CCCC3)nc2C)cc1S(=O)(=O)NC1CCNCC1 [Compound S-160, 3-cyclopentyl-N-[5-[4-methoxy-3-(4-piperidylsulfamoyl)phenyl]-4-methyl-thiazol-2-yl]propanamide] | > 10000 | > 10000 | – | – | –
6 | COc1ccc(-c2sc(N[C@H](C)C3CCCCC3)nc2C)cc1S(=O)(=O)N[C@H]1CC[C@H](O)CC1 [Compound S-193, 5-[2-[[(1R)-1-cyclohexylethyl]amino]-4-methyl-thiazol-5-yl]-N-(4-hydroxycyclohexyl)-2-methoxy-benzenesulfonamide] | – | > 10000 | – | – | –
7 | COc1ccc(-c2sc(NC(C)C)nc2C)cc1S(=O)(=O)N[C@H]1CC[C@H](O)CC1 [Compound S-215, N-(4-hydroxycyclohexyl)-5-[2-(isopropylamino)-4-methyl-thiazol-5-yl]-2-methoxy-benzenesulfonamide] | > 10000 | > 10000 | – | – | –
8 | COc1ccc(-c2sc(NC(C)(C)C)nc2C)cc1S(=O)(=O)N[C@H]1CC[C@H](O)CC1 [Compound S-216, 5-[2-(tert-butylamino)-4-methyl-thiazol-5-yl]-N-(4-hydroxycyclohexyl)-2-methoxy-benzenesulfonamide] | > 10000 | > 10000 | – | – | –
9 | COc1ccc(-c2sc(NC(=O)CC3CCOCC3)nc2C)cc1S(=O)(=O)Nc1ccc(O)cc1C [Compound S-231, N-[5-[3-[(4-hydroxy-2-methyl-phenyl)sulfamoyl]-4-methoxy-phenyl]-4-methyl-thiazol-2-yl]-2-tetrahydropyran-4-yl-acetamide] | > 10000 | > 10000 | – | – | –
10 | COc1ncc(-c2sc(NC(=O)CC3CCOCC3)nc2C)cc1S(=O)(=O)Nc1ccc(O)cc1 [Compound S-261] | 100 to 1000 | – | 1 to 100 | 1000 to 10000 | –

— patent US10428060B2, “PI-kinase inhibitors with anti-infective activity” (The Board of Trustees of the Leland Stanford Junior …, priority 2011, dated 2019)
